In US10208028B1, “Methods of treating cancer” (Macau University of Science and Technology, priority 2017, dated 2019):

Tests used:
[1] = system: Cyclin D1; test: Western blot analysis, cyclin D1; format: cell-based; details: H358 cells, 3, 6, 9 μM, 24 hr
Method: (§1) The cell culture dish was placed in the ice and washed the cells with PBS. Then the PBS was removed to ensure that the cells were lysed in cell lysis buffer containing protease and phosphatase inhibitors. Adherent cells were scraped off from the plate and transferred the lysate into a new tube. The tube was maintained at a constant agitation for 15 min in the ice. Then the tubes were centrifuged at 4° C. 12000 g for 5 min. The supernatant was transferred into a new tube and 4× loading buffer was added to the supernatant. Each sample was boiled at 100° C. for 5 min. Equal amounts of protein (50 μg) were loaded into the wells of a SDS-PAGE gel, along with 3 μl markers. The gel was placed in transfer buffer in sandwich and was transferred to a nitrocellulose filter membrane. After transferring for 3 hr in an ice bucket at a constant current of 300 mA, the membranes were blocked in 5% non-fat milk in TBST at room temperature for 1 hr. The membrane was incubated overnight with the primary antibody solution, against the target protein at 4° C. The blot was rinsed 3 times within 5 min with TBST. The secondary antibody solution was incubated for 1 hr at room temperature. […]
(§2) To determine whether the induction of apoptosis in NSCLC cells was contributed by compound C620-0696-mediated growth inhibition, cleaved PARP1 in compound C620-0696 treated H358 cells was detected. […]

[2] = system: A549 cells; test: Colony formation assay; format: cell-based; details: A549 cells, 0.5, 1, 1.5 μM, 7 days, versus control group
Method: Cell survival was assessed by colony formation as previously described. A549 cells were seeded to six-well plate (500-1000/well). Then cells were exposed to various doses of compound C620-0696. After 7 days, colonies were fixed with 4% paraformaldehyde for 15 minutes and stained with crystal violet for 10-15 minutes. Finally, the staining solution was slowly washed off with water and the cells were air dried.
To determine the effect of the compound C620-0696 on A549 cell growth behavior, a colony formation assay was performed. A549 cells were treated by different concentrations of compound C620-0696, i.e. 0 (control group), 0.5, 1, 1.5 μM.

[3] = system: c-MYC; test: Western blot analysis, c-MYC; format: cell-based; details: H358 cells, 3, 6, 9 μM, 24 hr
Method: as §1, §2

[4] = target: bromodomain of BPTF (Homo sapiens, UniProt Q12830); test: Kinetic binding analysis by biolayer interferometry
Method: The Octet Red96 system (Forte Bio, Pall) was used to determine the binding between compound C620-0696 and BPTF. BPTF protein was loaded to saturation onto anti-His capture sensors (ForteBio), then was placed for 2 min in wells containing C620-0696 (concentrations: 3.125, 6.25, 12.5, 25, 50, 100, 200 μM). The baseline and dissociation steps were carried out in the kinetics buffer as per the instrument manufacturer's recommendations. Kinetic binding data in all cases were adequately described accurately by a 1:1 binding model.
FIG. 2A is a graph 200 showing the binding affinity of the bromodomain of BPTF with compound C620-0696 by Biolayer interferometry assay (BLI). BLI is a label-free technology for measuring biomolecular interactions. The bromodomain was immobilized on the streptavidin (SA) biosensors, and then mixed with different concentration of compound C620-0696 at 3.125, 6.25, 12.5, 25, 50, 100, 200 μM.

[5] = system: H358 cells; test: MTT assay cell viability; format: cell-based; details: Homo sapiens, NCI-H358, 72 hr treatment
Method: (§3) A549 and H358 cell lines were stored in liquid nitrogen. A549 and H358 cells were cultured by RPMI 1640 medium after recovery. RPMI 1640 medium supplemented with 10% fetal bovine serum and 100 units/mL penicillin and 100 μg/mL streptomycin. A549 and H358 cells were grown at 37° C. incubator with 5% CO2.
(§4) All compounds were dissolved in dimethyl sulfoxide (DMSO) and stored at −40° C. HCC78 cells were plated in 96-well micro-plate and plated 3000 cells/well. Then the 96-well micro-plate was put back in the incubator and overnight for cell adhesion. After cell adhesion, the medium was removed and each well was added with 100 μl drug-containing medium. There were three different concentrations for each drug and three duplicate wells for each concentration. Then cell adhesion was cultured overnight for 72 hr. After 72 hr, each well was added with 10 μl of MTT solution and the 96-well plate was put back in the incubator for 4 hr. Then 100 μl of the SDS solution (10% SDS and 0.1 mM HCL) was added to each well and incubated at 37° C. for 4 hr. Finally the absorbance of the plate was measured by an absorbance reader (Tecan, Morrisvill, N.C., USA).
(§5) FIG. 3B is a graph 302 showing the effect of compound C620-0696 on the cell viability of A549 cells. A549 cells were treated by different concentrations of compound C620-0696, i.e. 3, 6, 9 and 12 μM for 72 hr. […]

[6] = system: A549 cells; test: MTT assay cell viability; format: cell-based; details: Homo sapiens, 72 hr treatment
Method: as §3, §4, §5

[7] = system: A549 cells; test: Wound healing assay; format: cell-based; details: 24 and 48 hours postinjury, versus control cells
Method: A549 cells were seeded onto 6 well plates. When the cell confluence reached about >90% and scratch wounds were made by scraping the cell layer across each plate using the tip of 200 μl pipette. Wounded cultures were incubated in medium for 48 hr, and then visualized by Olympus inverted microscopy to assess cell migration ability.
To evaluate the effect of C620-0696 on cell migration and cellular processes in NSCLC, the wound healing assay was employed to assess the directional cell motility in A549 cells.

[8] = system: PARP1; test: Western blot analysis, cleaved PARP1; format: cell-based; details: H358 cells, 9 μM, 24 hr
Method: as §1, §2

## CN(C)CCCNc1cc(NCc2ccco2)c2noc3c2c1C(=O)c1ccccc1-3 [compound C620-0696]
[1]
  expression of cyclin D1: reduced the expression of cyclin D1
[2]
  colony formation: significant loss of colony formation
[3]
  expression of c-MYC: suppressed the expression
[4]; 1:1 binding model
  Koff: 1.70×10^−2 S^−1
[4]; 3.125-200 μM, steady-state analysis, read-out: binding affinity KD
  Kd: 35.5 µM
[5]
  IC50: 6.72 µM
[6]
  IC50: 11.2 µM
[7]
  cell migration (wound healing): migrated more slowly
[8]
  levels of cleaved PARP1: significantly increased
